Paper PMC4343023, “Selectivity of odorant-binding proteins from the southern house mosquito tested against physiologically relevant ligands” (Frontiers in Physiology, 2015)
Like-named read-outs stand apart in the source and are kept apart here.

Columns and labels:
Assay in all cases: biochemical
Format in all cases: binding
Details in all cases: for Int (fluorescence emission): residual NPN fluorescence, normalized to 100 prior to ligand, screen at 2–20 μM ligand
CquiOBP1 = CquiOBP1 (Culex quinquefasciatus, UniProt Q8T6I2)
Description: (§1) Binding affinity (Ban et al., [2002]) was tested with a panel of 34 compounds, including attractants, a mosquito oviposition pheromone, repellents, terpenoids and other putative mosquito attractants or repellents. Unless otherwise specified, they were purchased from Sigma-Aldrich/Fluka/Acros (St. Louis, MO). Repellents: DEET (N,N-diethyl-3-methylbenzamide), PMD (p-mentan-3,8-diol) (Bedoukian Research, Inc.), picaridin (butan-2-yl 2-(2-hydroxyethyl)piperidine-1-carboxylate), IR3535 (ethyl 3-[acetyl(butyl)amino]propanoate) (gifts from Dr. Kamal Chauhan, USDA, ARS, Beltsville), (±)-citronellal, and ethyl 2-phenylacetate. Oviposition attractants: (5R,6S)-6-acetoxy-5-hexadecanolide, MOP (Bedoukian Research, Inc.), skatole, indole, 4-methylphenol, and 4-ethylphenol. Human derived compounds: nonanal, 6-methyl-5-hepten-2-one (sulcatone). Terpenoids and other putative attractants/repellents: linalool, linalool oxide, eucalyptol, camphor, fenchone, thujone, geranyl acetate, eugenol, (Z)-3-hexenyl acetate, 1-octen-3-ol, 1-octyn-3-ol, 3-octanol, 1-hexanol, methylcyclohexanol, methyl salicylate, cyclohexanone, acetophenone, benzaldehyde, 3,5-dimethoxybenzene, 1,2-dimethoxybenzene, and 2-phenylethanol.
(§2) Fluorescence spectra were recorded in a right angle configuration on a spectrofluorimeter (RF-5301, Shimadzu, Kyoto, Japan) at room temperature using a 1 cm light path fluorimeter quartz cuvette. Slit widths of 10 nm were selected for both excitation and emission. N-phenyl-1-naphthylamine (NPN, or 1-NPN) (Ban et al., [2002]) was dissolved in methanol to yield a 1 mM stock solution. The binding affinity for NPN was determined by adding aliquots of NPN into a 10 μg/ml (microgram) protein sample. NPN was excited at 337 nm and emission spectra were recorded at high speed scanning between 350 and 500 nm. All ligands used in competition experiments were dissolved in spectrophotometric grade methanol. Binding data were collected in three independent measurements. Bound ligand was evaluated from fluorescence intensity assuming that the protein was 100% active, with a stoichiometry of 1:1 (protein: ligand) at saturation. The KNPN values were estimated using Prism 5 (GraphPad Software, Inc., La Jolla, CA) by non-linear regression for a unique site of binding. The curves were linearized using Scatchard plots. Dissociation constants of the competitors were calculated according to Campanacci et al. ([2001]) from the corresponding IC50 values in the equation: Kdiss = [IC50]/1+[NPN]/KNPN, where [NPN] is the free concentration of NPN and KNPN is the dissociation constant of the complex protein/NPN.

CquiOBP5 = CquiOBP5 (Culex quinquefasciatus, UniProt C7BDZ9)
Description: as §1, §2

CquiOBP2 = CquiOBP2 (Culex quinquefasciatus, UniProt C7BDZ6)
Description: as §1, §2

[1] = CquiOBP1, NPN displacement titration, read-out: IC50
[2] = CquiOBP1, calculated from IC50 of NPN displacement, read-out: Kd
[3] = CquiOBP5, NPN displacement titration, read-out: IC50
[4] = CquiOBP5, calculated from IC50 of NPN displacement, read-out: Kd
[5] = CquiOBP2, NPN displacement titration, read-out: IC50
[6] = CquiOBP2, calculated from IC50 of NPN displacement, read-out: Kd

Sequence of CquiOBP2 (C7BDZ6 entry or part of it): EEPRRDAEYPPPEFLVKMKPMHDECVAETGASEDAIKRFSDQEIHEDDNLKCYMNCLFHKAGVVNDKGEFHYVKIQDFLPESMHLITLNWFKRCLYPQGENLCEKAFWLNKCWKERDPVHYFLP
Sequence of CquiOBP5 (C7BDZ9 entry or part of it): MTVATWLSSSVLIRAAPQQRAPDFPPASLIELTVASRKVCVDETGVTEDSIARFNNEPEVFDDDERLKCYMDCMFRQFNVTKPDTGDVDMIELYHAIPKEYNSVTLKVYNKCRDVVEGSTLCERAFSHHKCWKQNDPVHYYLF
Sequence of CquiOBP1 (Q8T6I2 entry or part of it): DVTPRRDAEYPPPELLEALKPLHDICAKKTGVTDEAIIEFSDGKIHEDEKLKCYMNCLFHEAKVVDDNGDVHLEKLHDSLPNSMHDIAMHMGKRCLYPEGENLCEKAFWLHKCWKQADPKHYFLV

SMILES	IC50 (CquiOBP1; [1])	Kd (CquiOBP1; [2])	Int (fluorescence emission) (CquiOBP1; CquiOBP1)	IC50 (CquiOBP5; [3])	Kd (CquiOBP5; [4])	Int (fluorescence emission) (CquiOBP5; CquiOBP5)	IC50 (CquiOBP2; [5])	Kd (CquiOBP2; [6])	Int (fluorescence emission) (CquiOBP2; CquiOBP2)	IC50 (CquiOBP1)	Kd (CquiOBP1)	IC50 (CquiOBP5)	Kd (CquiOBP5)	IC50 (CquiOBP2)	Kd (CquiOBP2)
COc1ccccc1OC [1,2-Dimethoxybenzene, 1,2-dimethoxybenzene]	> 10 µM	> 6.3 µM	88	> 10 µM	> 7 µM	87	> 10 µM	> 2.5 µM	91						
CCCCCCO [1-Hexanol, 1-hexanol]	> 10 µM	> 6.3 µM	85	> 10 µM	> 7 µM	88	> 10 µM	> 2.5 µM	89						
C=CC(O)CCCCC (stereo not drawn) [1-Octen-3-ol, 1-octen-3-ol]	> 10 µM	> 6.3 µM	69	11.6 µM	8.1 µM	59	> 10 µM	> 2.5 µM	93						
C#CC(O)CCCCC (stereo not drawn) [1-Octyn-3-ol, 1-octyn-3-ol]	> 10 µM	> 6.3 µM	66	12.8 µM	8.9 µM	62.2	> 10 µM	> 2.5 µM	92						
OCCc1ccccc1 [2-Phenylethanol, 2-phenylethanol]	> 10 µM	> 6.3 µM	91	> 10 µM	> 7 µM	95	> 10 µM	> 2.5 µM	92						
Cc1cc(C)cc(O)c1 [3,5-Dimethylphenol]	> 10 µM	> 6.3 µM	84	> 10 µM	> 7 µM	93	7.4 µM	1.9 µM	40						
CCCCCC(O)CC (stereo not drawn) [3-Octanol, 3-octanol]	> 10 µM	> 6.3 µM	87	> 10 µM	> 7 µM	85	> 10 µM	> 2.5 µM	78						
CCc1ccc(O)cc1 [4-Ethylphenol, 4-ethylphenol]	> 10 µM	> 6.3 µM	85	> 10 µM	> 7 µM	84	> 10 µM	> 2.5 µM	91						
CC1CCC(O)CC1 (stereo not drawn) [4-Methylcyclohexanol]	> 10 µM	> 6.3 µM	88	> 10 µM	> 7 µM	93	> 10 µM	> 2.5 µM	88						
Cc1ccc(O)cc1 [4-Methylphenol, 4-methylphenol]	> 10 µM	> 6.3 µM	73	> 10 µM	> 7 µM	90	> 10 µM	> 2.5 µM	85						
CC/C=C\CCOC(C)=O [(Z)-3-Hexenyl acetate, (Z)-3-hexenyl acetate]	> 10 µM	> 6.3 µM	79	> 10 µM	> 7 µM	83	> 10 µM	> 2.5 µM	93						
CC(=O)c1ccccc1 [Acetophenone, acetophenone]	> 10 µM	> 6.3 µM	88	> 10 µM	> 7 µM	87	> 10 µM	> 2.5 µM	92						
O=Cc1ccccc1 [Benzaldehyde, benzaldehyde]			83			93			91	> 10 µM	> 6.3 µM	> 10 µM	> 7 µM	> 10 µM	> 2.5 µM
CC12CCC(CC1=O)C2(C)C (stereo not drawn) [Camphor, camphor]	> 10 µM	> 6.3 µM	90	> 10 µM	> 7 µM	89	> 10 µM	> 2.5 µM	85						
O=C1CCCCC1 [Cyclohexanone, cyclohexanone]	> 10 µM	> 6.3 µM	79	> 10 µM	> 7 µM	82	> 10 µM	> 2.5 µM	86						
CCN(CC)C(=O)c1cccc(C)c1 [DEET, N,N-diethyl-3-methylbenzamide]	> 10 µM	> 6.3 µM	82	> 10 µM	> 7 µM	92	> 10 µM	> 2.5 µM	96						
CCOC(=O)Cc1ccccc1 [Ethyl 2-phenylacetate, ethyl 2-phenylacetate]			92			91			87	> 10 µM	> 6.3 µM	> 10 µM	> 7 µM	> 10 µM	> 2.5 µM
CC12CCC(CC1)C(C)(C)O2 [Eucalyptol, eucalyptol]	> 10 µM	> 6.3 µM	96	> 10 µM	> 7 µM	73	> 10 µM	> 2.5 µM	90						
C=CCc1ccc(O)c(OC)c1 [Eugenol, eugenol]	> 10 µM	> 6.3 µM	72	10.7 µM	7.4 µM	57.5	> 10 µM	> 2.5 µM	82						
CC12CCC(C1)C(C)(C)C2=O (stereo not drawn) [Fenchone, fenchone]	> 10 µM	> 6.3 µM	89	> 10 µM	> 7 µM	92	> 10 µM	> 2.5 µM	87						
CC(=O)OC/C=C(\C)CCC=C(C)C [Geranyl acetate, geranyl acetate]	> 10 µM	> 6.3 µM	94	> 10 µM	> 7 µM	81	> 10 µM	> 2.5 µM	90						
CCCCN(CCC(=O)OCC)C(C)=O [IR3535, ethyl 3-[acetyl(butyl)amino]propanoate]	> 10 µM	> 6.3 µM	71	> 10 µM	> 7 µM	67	> 10 µM	> 2.5 µM	90						
C=CC1(C)CCC(C(C)(C)O)O1 (stereo not drawn) [Linalool oxide, linalool oxide]	> 10 µM	> 6.3 µM	92	> 10 µM	> 7 µM	94	> 10 µM	> 2.5 µM	95						
C=CC(C)(O)CCC=C(C)C (stereo not drawn) [Linalool, linalool]	> 10 µM	> 6.3 µM	91	> 10 µM	> 7 µM	86	> 10 µM	> 2.5 µM	97						
